According to PubChem BioAssay AID256 (DTP/NCI, 2004):
Inconclusive results and toxic doses are left out. How the source made its calls: active means survival T/C of 150% or more; inactive means T/C below 125% in these data.

Test system: CD2F1 mice, L1210 leukemia ip, survival T/C
Assay: NCI In Vivo Anticancer Drug Screen. Data for tumor model L1210 Leukemia (intraperitoneal) in CD2F1 (CDF1) mice
Details: endpoint: mean survival time, higher = longer survival
In short: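 Mice carrying a transplanted tumor received test compound or vehicle alone. The value is the measurement in the treated group divided by that in the vehicle-treated control group.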

[1] = dose: 100.0 mg/kg/injection, schedule: Q04DX003 (ip), vehicle: saline with Tween-80
[2] = dose: 200.0 mg/kg/injection, schedule: Q04DX003 (ip), vehicle: saline with Tween-80
[3] = dose: 400.0 mg/kg/injection, schedule: Q04DX003 (ip), vehicle: saline with Tween-80
[4] = dose: 100.0 mg/kg/injection, schedule: Q01DX009 (ip), vehicle: saline with Tween-80
[5] = dose: 200.0 mg/kg/injection, schedule: Q01DX009 (ip), vehicle: saline with Tween-80
[6] = dose: 400.0 mg/kg/injection, schedule: Q01DX009 (ip), vehicle: saline with Tween-80
[7] = dose: 100.0 mg/kg/injection, schedule: Q01DX001 (ip), vehicle: saline
[8] = dose: 200.0 mg/kg/injection, schedule: Q01DX001 (ip), vehicle: saline
[9] = dose: 50.0 mg/kg/injection, schedule: Q01DX009 (ip), vehicle: saline with Tween-80

Measured: T/C

[N-]=[N+]=C1C(=O)NC(=O)N2C3CC(O)C(COC12)O3 (stereo unspecified)
inactive: dose: 75.0 mg/kg/injection, schedule: Q01DX009 (ip), vehicle: saline with Tween-80 106 % of control | dose: 100.0 mg/kg/injection, schedule: Q01DX009 (ip), vehicle: saline sonified 114 % of control | [1] 101 % of control | dose: 150.0 mg/kg/injection, schedule: Q01DX009 (ip), vehicle: saline with Tween-80 108 % of control | dose: 200.0 mg/kg/injection, schedule: Q01DX009 (ip), vehicle: saline sonified 120 % of control | [2] 104 % of control | dose: 300.0 mg/kg/injection, schedule: Q01DX009 (ip), vehicle: saline with Tween-80 112 % of control | dose: 400.0 mg/kg/injection, schedule: Q01DX009 (ip), vehicle: saline sonified 121 % of control | [3] 108 % of control

O=C1OC(=O)c2ccc([N+](=O)[O-])c3c([N+](=O)[O-])ccc1c23
inactive: [1] 92 % of control | [2] 95 % of control | [3] 90 % of control

CC(C)(C(=O)c1ccccc1)C(=O)c1ccccc1
inactive: dose: 50.0 mg/kg/injection, schedule: Q01DX001 (ip), vehicle: saline with Tween-80 104 % of control | dose: 100.0 mg/kg/injection, schedule: Q01DX001 (ip), vehicle: saline with Tween-80 102 % of control | [4] 100 % of control | dose: 200.0 mg/kg/injection, schedule: Q01DX001 (ip), vehicle: saline with Tween-80 100 % of control | [5] 94 % of control | [6] 98 % of control

Nc1ncnc2c(C3OC(CO)C(O)C3O)[nH]nc12 (stereo unspecified)
inactive: dose: 6.25 mg/kg/injection, schedule: Q01DX009 (ip), vehicle: saline with Tween-80 108 % of control | dose: 12.5 mg/kg/injection, schedule: Q01DX009 (ip), vehicle: saline with Tween-80 120 % of control | dose: 25.0 mg/kg/injection, schedule: Q01DX009 (ip), vehicle: saline with Tween-80 113 % of control | [1] 101 % of control | [2] 109 % of control

O=NN(CCCl)C(=S)Nc1ccccc1
inactive: dose: 100.0 mg/kg/injection, schedule: Q01DX001 (ip), vehicle: other 98 % of control | dose: 200.0 mg/kg/injection, schedule: Q01DX001 (ip), vehicle: other 98 % of control

CC(C)C(C)/C=C/CC(C)C1CCC2C1(C)CCCC21C2CC3=C(CC(OC(=O)NC(N)=O)CC3)C21 (stereo unspecified)
inactive: [4] 95 % of control | [5] 104 % of control | [6] 87 % of control

COC(=O)c1ccc(-c2ccccc2)cc1
inactive: dose: 25.0 mg/kg/injection, schedule: Q01DX009 (ip), vehicle: Klucel (hydroxypropylcellulose) (HPC) 96 % of control | dose: 50.0 mg/kg/injection, schedule: Q01DX009 (ip), vehicle: Klucel (hydroxypropylcellulose) (HPC) 102 % of control | dose: 100.0 mg/kg/injection, schedule: Q01DX009 (ip), vehicle: Klucel (hydroxypropylcellulose) (HPC) 103 % of control | dose: 200.0 mg/kg/injection, schedule: Q01DX009 (ip), vehicle: Klucel (hydroxypropylcellulose) (HPC) 105 % of control | dose: 400.0 mg/kg/injection, schedule: Q01DX009 (ip), vehicle: Klucel (hydroxypropylcellulose) (HPC) 102 % of control

Cc1c(O)c(Br)c(C)c(O)c1Br (tested in a mixture with another compound)
inactive: [7] 98 % of control | [8] 101 % of control

CCOC(=O)C1=C(C)NC(C)=C(C(=O)OCC)C1Cc1ccccc1
inactive: dose: 100.0 mg/kg/injection, schedule: Q01DX009 (ip), vehicle: other 106 % of control | dose: 200.0 mg/kg/injection, schedule: Q01DX009 (ip), vehicle: other 98 % of control | dose: 400.0 mg/kg/injection, schedule: Q01DX009 (ip), vehicle: other 104 % of control

O=C1c2c(O)ccc(O)c2C(=O)c2c(NCCO)ccc(NCCO)c21
inactive: [4] 103 % of control | [5] 110 % of control | [6] 113 % of control

CC1=NOC(=O)C1C(C)(C)C1C(=O)ON=C1C (stereo unspecified)
inactive: [4] 107 % of control | [5] 104 % of control | [6] 104 % of control

O=C1OC(c2ccc(Cl)cc2)=N/C1=C\c1ccccc1
inactive: dose: 100.0 mg/kg/injection, schedule: Q01DX009 (ip), vehicle: acetone 97 % of control | dose: 200.0 mg/kg/injection, schedule: Q01DX009 (ip), vehicle: acetone 101 % of control

O=S1(=O)N=C2C3CCN(CC3)C2C(c2ccccc2)N1 (stereo unspecified)
inactive: dose: 50.0 mg/kg/injection, schedule: Q01DX001 (ip), vehicle: saline 94 % of control | [7] 101 % of control | [8] 101 % of control

S=P(S)(c1ccccc1)c1ccccc1
inactive: dose: 80.5 mg/kg/injection, schedule: Q01DX009 (ip), vehicle: saline with Tween-80 104 % of control | dose: 161.0 mg/kg/injection, schedule: Q01DX009 (ip), vehicle: saline with Tween-80 98 % of control | dose: 322.0 mg/kg/injection, schedule: Q01DX009 (ip), vehicle: saline with Tween-80 100 % of control

CCOC(=O)c1c(F)c(F)c(Oc2c(F)c(F)c(F)c(F)c2F)c(F)c1F
inactive: [1] 86 % of control | [2] 96 % of control | [3] 92 % of control

CN(CCN1CCCC1)C(=O)C(O)(c1ccccc1)c1ccccc1
inactive: dose: 100.0 mg/kg/injection, schedule: Q04DX003 (ip), vehicle: saline 96 % of control | dose: 200.0 mg/kg/injection, schedule: Q04DX003 (ip), vehicle: saline 93 % of control

O=C(CCCC1CCCCC1)Cc1ccccc1
inactive: dose: 100.0 mg/kg/injection, schedule: Q04DX003 (ip), vehicle: acetone 96 % of control | dose: 200.0 mg/kg/injection, schedule: Q04DX003 (ip), vehicle: acetone 94 % of control | dose: 400.0 mg/kg/injection, schedule: Q04DX003 (ip), vehicle: acetone 102 % of control

O=C(Nc1nccs1)c1ccc(Cl)cc1
inactive: [9] 96 % of control | [4] 96 % of control | [5] 92 % of control

c1ccc(CCCCc2ccc3ccccc3n2)cc1
inactive: [4] 93 % of control | [1] 106 % of control | [5] 102 % of control | [2] 100 % of control | [6] 98 % of control | [3] 100 % of control

CCCOS(=O)(=O)c1ccc(Cl)c([N+](=O)[O-])c1
inactive: [9] 97 % of control | [4] 90 % of control | [1] 94 % of control | [2] 89 % of control

Cc1ccc(S(=O)(=O)OC2CCCCC2c2cccc(Cl)c2)cc1 (stereo unspecified)
inactive: dose: 75.0 mg/kg/injection, schedule: Q01DX001 (ip), vehicle: other 92 % of control | dose: 150.0 mg/kg/injection, schedule: Q01DX001 (ip), vehicle: other 88 % of control | dose: 300.0 mg/kg/injection, schedule: Q01DX001 (ip), vehicle: other 101 % of control

CC(C)c1cc2c(cc1O)C1(C)CCCC(C)(C(=O)O)C1CC2 (stereo unspecified)
inactive: [4] 98 % of control | [1] 95 % of control | [5] 102 % of control | [2] 96 % of control | [6] 101 % of control | [3] 94 % of control

O=C(Nc1ccccc1)C(Cl)Cl
inactive: [1] 103 % of control | [2] 103 % of control | [3] 97 % of control

OC1(c2ccccc2)c2ccccc2C(O)(c2ccccc2)c2c1ccc1ccccc21 (stereo unspecified)
inactive: [9] 91 % of control | [4] 94 % of control | [5] 91 % of control

COc1cc2c(cc1OC)C1CC(O)C3CCCCC3N1CC2 (stereo unspecified)
inactive: [1] 93 % of control | [2] 93 % of control

C1=C\C[n+]2ccccc2-c2cccc[n+]2C/1
inactive: dose: 7.5 mg/kg/injection, schedule: Q01DX001 (ip), vehicle: saline 95 % of control | dose: 7.5 mg/kg/injection, schedule: Q04DX003 (ip), vehicle: saline 96 % of control | dose: 15.0 mg/kg/injection, schedule: Q01DX001 (ip), vehicle: saline 95 % of control | dose: 15.0 mg/kg/injection, schedule: Q04DX003 (ip), vehicle: saline 97 % of control | dose: 30.0 mg/kg/injection, schedule: Q01DX001 (ip), vehicle: saline 98 % of control

Nc1ccc(C(=O)CCCN2CCCCC2)cc1
inactive: dose: 12.5 mg/kg/injection, schedule: Q04DX003 (ip), vehicle: saline 107 % of control | dose: 25.0 mg/kg/injection, schedule: Q04DX003 (ip), vehicle: saline 95 % of control | dose: 50.0 mg/kg/injection, schedule: Q04DX003 (ip), vehicle: saline 107 % of control

C[CH2][Sn]([CH2]C)([O]S(C)(=O)=O)[O]S(C)(=O)=O
inactive: dose: 0.78 mg/kg/injection, schedule: Q01DX009 (ip), vehicle: saline 101 % of control | dose: 1.56 mg/kg/injection, schedule: Q01DX009 (ip), vehicle: saline 107 % of control | dose: 3.12 mg/kg/injection, schedule: Q01DX009 (ip), vehicle: saline 107 % of control | dose: 6.25 mg/kg/injection, schedule: Q01DX009 (ip), vehicle: saline 111 % of control | dose: 12.5 mg/kg/injection, schedule: Q01DX009 (ip), vehicle: saline 114 % of control

N#CSCc1c(Cl)c(Cl)c(CSC#N)c(Cl)c1Cl
inactive: dose: 75.0 mg/kg/injection, schedule: Q04DX003 (ip), vehicle: saline 95 % of control | dose: 150.0 mg/kg/injection, schedule: Q04DX003 (ip), vehicle: saline 98 % of control | dose: 300.0 mg/kg/injection, schedule: Q04DX003 (ip), vehicle: saline 98 % of control
